Source: article PMC6978697 (The Journal of Pharmacology and Experimental Therapeutics, 2020)

Biological target: T1, HA-DOPr (HA-tagged δ opioid receptor) (Homo sapiens, UniProt P41143)
T1 construct: gene OPRD1; full-length wild type, HA-tagged
Experiment: [3H]-diprenorphine competition, HEK293 membranes
Type: binding
Conditions: read-out: [^3H]-Diprenorphine / pKi (converted)
Description: [3H]-diprenorphine competition, HEK293 membranes on HA-DOPr (HA-tagged δ opioid receptor)

T1 sequence (P41143 whole entry, looked up): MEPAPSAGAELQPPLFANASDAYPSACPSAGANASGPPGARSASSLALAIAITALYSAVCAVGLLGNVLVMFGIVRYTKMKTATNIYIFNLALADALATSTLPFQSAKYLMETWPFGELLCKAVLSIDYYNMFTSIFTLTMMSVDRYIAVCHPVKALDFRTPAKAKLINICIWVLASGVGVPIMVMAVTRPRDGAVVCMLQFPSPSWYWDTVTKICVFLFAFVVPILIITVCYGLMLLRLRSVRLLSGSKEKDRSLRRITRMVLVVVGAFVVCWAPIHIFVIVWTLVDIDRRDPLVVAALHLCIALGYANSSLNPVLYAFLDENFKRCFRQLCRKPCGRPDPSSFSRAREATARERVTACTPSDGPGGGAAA

Question: With `CN(C)C(=O)c1ccc(C(=C2CCN(Cc3cncs3)CC2)c2cccc(C(N)=O)c2)cc1` [PN6047, 3-[[4-(dimethylcarbamoyl)phenyl]-[1-(thiazol-5-ylmethyl)-4-piperidylidene]methyl]benzamide] as the compound, how does the Ki read?
Answer: 56.2 nM
